Test results: US6737383B1, “Herbicidal oxadiazolidines” (priority 1999, dated 2004)

Assays:
bedstraw = assay: Test B pre/postemergence bedstraw; type: in vivo, Galium aparine
In short: (§1)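 Herbicidal effect was estimated by eye on a ten-point control scale after plants spent twelve to sixteen days in a greenhouse following soil or foliar treatment. Foliar sprays targeted plants at one to four leaves; all doses were formulated in a non-phytotoxic solvent with surfactant.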

blackgrass = assay: Test B pre/postemergence blackgrass; type: in vivo, Alopecurus myosuroides
In short: as §1

surinam grass = assay: Test B pre/postemergence surinam grass; type: in vivo, Brachiaria decumbens
In short: as §1

corn = assay: Test B pre/postemergence corn; type: in vivo, Zea mays
In short: as §1

crabgrass = assay: Test B pre/postemergence crabgrass; type: in vivo, Digitaria sanguinalis
In short: as §1

giant foxtail = assay: Test B pre/postemergence giant foxtail; type: in vivo, Setaria faberii
In short: as §1

morningglory = assay: Test B pre/postemergence morningglory; type: in vivo, Ipomoea hederacea
In short: as §1

pigweed = assay: Test B pre/postemergence pigweed; type: in vivo, Amaranthus retroflexus
In short: as §1

rape = assay: Test B pre/postemergence rape; type: in vivo, Brassica napus
In short: as §1

sugar beet = assay: Test B pre/postemergence sugar beet; type: in vivo, Beta vulgaris
In short: as §1

wheat = assay: Test B pre/postemergence wheat; type: in vivo, Triticum aestivum
In short: as §1

wild oat = assay: Test B pre/postemergence wild oat; type: in vivo, Avena fatua
In short: as §1

purple nutsedge = assay: Test B pre/postemergence purple nutsedge; type: in vivo, Cyperus rotundus
In short: as §1

rice = assay: Test B flood test rice; type: in vivo, Oryza sativa; conditions: Pre-emergence
In short: (§2)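 Read-out is a visual response score from 0 (no effect) to 10 (complete control), assigned by comparison with untreated controls. Treatment was applied at the 2-leaf stage, and plants stayed in the greenhouse for twelve to sixteen days before scoring.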

smallflower flatsedge = assay: Test B flood test smallflower flatsedge; type: in vivo, Cyperus difformis; conditions: Pre-emergence
In short: as §2

bamyardgrass = assay: Test B flood test barnyardgrass; type: in vivo, Echinochloa crus-galli; conditions: Pre-emergence
In short: as §2

[1] = Postemergence, Rate 125 g/ha, scale 0 to 10, 0 is no effect, 10 is complete control
[2] = Preemergence, Rate 62 g/ha, scale of 0 to 10 where 0 is no effect and 10 is complete control
[3] = Preemergence, Rate 250 g/ha, scale of 0 to 10 where 0 is no effect and 10 is complete control
[4] = Preemergence, Rate 500 g/ha, scale of 0 to 10 where 0 is no effect and 10 is complete control
[5] = Rate 62 g/ha, Postemergence, scale 0 to 10 (0 no effect, 10 complete control)
[6] = Rate 250 g/ha, Postemergence, scale of 0 to 10 where 0 is no effect and 10 is complete control
[7] = Rate 500 g/ha, Postemergence, scale 0 to 10, 0 no effect, 10 complete control
[8] = Rate 1000 g/ha, scale 0 to 10 (0 no effect, 10 complete control)
[9] = Rate 125 g/ha, flood test species, scale 0 to 10 where 0 is no effect and 10 is complete control
[10] = Rate 250 g/ha, flood-test species, scale 0 to 10, 0 is no effect, 10 is complete control
[11] = Rate 500 g/ha, flood test species, scale 0 to 10 (0 no effect, 10 complete control)

Structure (SMILES): CC(C)N(C(=O)n1oc(=O)n(-c2ccc3ccccc3c2)c1=O)c1ccc(Cl)cc1 [Compound 333]
- Plant response rating, Bedstraw (bedstraw; [1]): 0
- Bedstraw plant response rating (bedstraw; [2]): 0
- Bedstraw plant response rating (0 to 10 scale) (bedstraw; Preemergence, Rate 125 g/ha): 0
- Bedstraw plant response rating (bedstraw; [3]): 0
- Bedstraw plant response rating (bedstraw; [4]): 0
- Bedstraw plant response rating (bedstraw; [5]): 0
- Plant response rating, Bedstraw (bedstraw; [6]): 0
- Plant response rating, Bedstraw (bedstraw; [7]): 0
- Plant response rating, Blackgrass (blackgrass; [1]): 0
- Blackgrass plant response rating (blackgrass; [2]): 0
- Blackgrass plant response rating (0 to 10 scale) (blackgrass; Preemergence, Rate 125 g/ha): 0
- Blackgrass plant response rating (blackgrass; [3]): 0
- Blackgrass plant response rating (blackgrass; [4]): 0
- Blackgrass plant response rating (blackgrass; [5]): 0
- Plant response rating, Blackgrass (blackgrass; [6]): 0
- Plant response rating, Blackgrass (blackgrass; [7]): 0
- Plant response rating, B. signalgrass (surinam grass; [1]): 0
- B. signalgrass plant response rating (surinam grass; [2]): 0
- B. signalgrass plant response rating (0 to 10 scale, 0 is no effect, 10 is complete control) (surinam grass; Preemergence, Rate 125 g/ha): 0
- B. signalgrass plant response rating (surinam grass; [3]): 0
- B. signalgrass plant response rating (surinam grass; [4]): 0
- B. signalgrass plant response rating (surinam grass; [5]): 0
- Plant response rating, B. signalgrass (surinam grass; [6]): 0
- Plant response rating, B. signalgrass (surinam grass; [7]): 0
- Plant response rating, Corn (corn; [1]): 0
- Corn plant response rating (corn; [2]): 0
- Corn plant response rating (0 to 10 scale) (corn; Preemergence, Rate 125 g/ha): 0
- Corn plant response rating (corn; [3]): 0
- Corn plant response rating (corn; [4]): 0
- Corn plant response rating (corn; [5]): 0
- Plant response rating, Corn (corn; [7]): 0
- Plant response rating, Crabgrass (crabgrass; [1]): 0
- Crabgrass plant response rating (crabgrass; [2]): 0
- Crabgrass plant response rating (0 to 10 scale) (crabgrass; Preemergence, Rate 125 g/ha): 0
- Crabgrass plant response rating (crabgrass; [3]): 0
- Crabgrass plant response rating (crabgrass; [4]): 3
- Crabgrass plant response rating (crabgrass; [5]): 0
- Plant response rating, Crabgrass (crabgrass; [7]): 0
- Plant response rating, Giant foxtail (giant foxtail; [1]): 0
- Giant foxtail plant response rating (giant foxtail; [2]): 0
- Giant foxtail plant response rating (0 to 10 scale) (giant foxtail; Preemergence, Rate 125 g/ha): 0
- Giant foxtail plant response rating (giant foxtail; [3]): 0
- Giant foxtail plant response rating (giant foxtail; [4]): 2
- Giant foxtail plant response rating (giant foxtail; [5]): 0
- Plant response rating, Giant foxtail (giant foxtail; [7]): 0
- Plant response rating, Morningglory (morningglory; [1]): 0
- Morningglory plant response rating (morningglory; [2]): 0
- Morningglory plant response rating (0 to 10 scale) (morningglory; Preemergence, Rate 125 g/ha): 0
- Morningglory plant response rating (morningglory; [3]): 0
- Morningglory plant response rating (morningglory; [4]): 0
- Morningglory plant response rating (morningglory; [5]): 0
- Plant response rating, Morningglory (morningglory; [7]): 0
- Plant response rating, Redroot pigweed (pigweed; [1]): 0
- Redroot pigweed plant response rating (pigweed; [2]): 0
- Redroot pigweed plant response rating (0 to 10 scale) (pigweed; Preemergence, Rate 125 g/ha): 0
- Redroot pigweed plant response rating (pigweed; [3]): 0
- Redroot pigweed plant response rating (pigweed; [4]): 0
- Redroot pigweed plant response rating (pigweed; [5]): 0
- Plant response rating, Redroot pigweed (pigweed; [7]): 0
- Plant response rating, Rape (rape; [1]): 0
- Rape plant response rating (rape; [2]): 0
- Rape plant response rating (0 to 10 scale) (rape; Preemergence, Rate 125 g/ha): 0
- Rape plant response rating (rape; [3]): 0
- Rape plant response rating (rape; [4]): 0
- Rape plant response rating (rape; [5]): 0
- Plant response rating, Rape (rape; [7]): 0
- Plant response rating, Sugarbeets (sugar beet; [1]): 0
- Sugarbeets plant response rating (sugar beet; [2]): 0
- Sugarbeets plant response rating (0 to 10 scale) (sugar beet; Preemergence, Rate 125 g/ha): 0
- Sugarbeets plant response rating (sugar beet; [3]): 0
- Sugarbeets plant response rating (sugar beet; [4]): 0
- Sugarbeets plant response rating (sugar beet; [5]): 0
- Plant response rating, Sugarbeets (sugar beet; [7]): 0
- Plant response rating, Wheat (wheat; [1]): 0
- Wheat plant response rating (wheat; [2]): 0
- Wheat plant response rating (0 to 10 scale) (wheat; Preemergence, Rate 125 g/ha): 0
- Wheat plant response rating (wheat; [3]): 0
- Wheat plant response rating (wheat; [4]): 0
- Wheat plant response rating (wheat; [5]): 0
- Plant response rating, Wheat (wheat; [7]): 0
- Plant response rating, Wild oats (wild oat; [1]): 0
- Wild oats plant response rating (wild oat; [2]): 0
- Wild oats plant response rating (0 to 10 scale) (wild oat; Preemergence, Rate 125 g/ha): 0
- Wild oats plant response rating (wild oat; [3]): 0
- Wild oats plant response rating (wild oat; [4]): 0
- Wild oats plant response rating (wild oat; [5]): 0
- Plant response rating, Wild oats (wild oat; [7]): 0
- Plant response rating, Nutsedge (purple nutsedge; [1]): 0
- Nutsedge plant response rating (purple nutsedge; [2]): 0
- Nutsedge plant response rating (0 to 10 scale) (purple nutsedge; Preemergence, Rate 125 g/ha): 0
- Nutsedge plant response rating (purple nutsedge; [3]): 0
- Nutsedge plant response rating (purple nutsedge; [4]): 0
- Nutsedge plant response rating (purple nutsedge; [5]): 0
- Plant response rating, Nutsedge (purple nutsedge; [7]): 0
- Rice plant response rating (rice; [8]): 0
- Rice plant response rating (rice; [9]): 0
- Rice plant response rating (rice; [10]): 0
- Rice plant response rating (rice; [11]): 0
- S. Flatsedge plant response rating (smallflower flatsedge; [8]): 0
- S. Flatsedge plant response rating (smallflower flatsedge; [9]): 0
- S. Flatsedge plant response rating (smallflower flatsedge; [10]): 0
- S. Flatsedge plant response rating (smallflower flatsedge; [11]): 0
- Barnyardgrass plant response rating (bamyardgrass; [8]): 0
- Barnyardgrass plant response rating (bamyardgrass; [9]): 0
- Barnyardgrass plant response rating (bamyardgrass; [10]): 0
- Barnyardgrass plant response rating (bamyardgrass; [11]): 0
